Assays:
(HEK293 cells) = assay: [3H]-WIN55212-2 binding competition in HEK293 cells; set-up: species or system human; conditions: FIG. 2c
Procedure: Cells were grown to 90% confluence, rinsed twice with 1× PBS and stored at −80° C. until further use. To prepare crude cellular membrane fractions, dishes were removed from −80° C. and thawed at room temperature for 5 min. Once thawed, cells were lysed with ice-cold homogenization buffer (50 mM Tris, 1 mM EDTA, 3 mM MgCl2) and gently scraped from the dish. Total cell lysates from 3-5 dishes were collected on ice in 3 ml of ice-cold homogenization buffer Cells were homogenized at 6,500 rpm (PRO Scientific, Oxford, Conn.) twice for 10 sec and centrifuged at 11,500 rpm for 20 min at 4° C. Supernatants were discarded and cell pellets were resuspended in homogenization buffer and tris rated 10 times in ice-cold homogenization buffer. Crude cellular membrane homogenates were stored at −80° C. until further use. […]
Due to the lipophillic nature of the tested compounds, all experiments were performed in silanized glass test tubes (Alltech, Deerfield, Ill.) with silanized pipette tips (VWR Scientific, Brisbane, Calif.) to reduce the loss of ligands. […] For competition binding assays, specific binding was calculated by subtracting the average dpm (disintegrations per minute, dpm) if non-specific points from the individual dpm values for each total binding point and expressed as either fmol/mg for saturation analyses or as a percent of total radioligand binding in competition curves. […]

T98 g cells = assay: Signaling pathway and cell death in T98 g cells; assay type: cell-based, human
Procedure: To determine the signaling pathway activated by AI receptors, T98 g cells were treated and changes in select kinase and mediatior of cell death were measured.

[1] = test system: mouse microglia in primary culture; assay: Microglia cell migration; assay type: cell-based
[2] = test system: mouse microglia in primary culture; assay: IP production in mouse microglia; assay type: cell-based

CCn1c(C)c(C(=O)c2ccc(C)c3ccccc23)c2ccccc21 [ST-11] was tested, and the “competition for [3H]-WIN55212-2 binding” value ((HEK293 cells)) was “competes”, the “cell death (cell number, nuclear fragmentation, cell blebbing)” value (T98 g cells; after 48 hrs) was “followed by cell death” and the PARP cleavage (T98 g cells; within hours) was “cleaves PARP”. The “activation of PLK-1” value (T98 g cells; within hours) was “induces the activation of PLK-1”, the “caspase 3 activation” value (T98 g cells; within hours) was “caspase 3 activation” and the “microglia cell migration stimulated by ATP” value [1] was “inhibits”. For the same molecule, the IP production [2] was “does not stimulate or inhibit IP production”.

— patent US20150018369A1 (priority 2012, published 2015)
